Converted amounts (≈) assume the structure as drawn.
Legend:
[1] = test system: Streptococcus pneumoniae ATCC 6301; assay: Evaluation of antibacterial activity (MIC, serial dilutions on 96-well microtiter plates); assay type: cell-based; settings: ATCC6301, read-out: Antibacterial Activity (MIC, μg/mL)
[2] = target: T1, Motilin Receptor (Oryctolagus cuniculus, UniProt G1T803); assay: Tissue based assay for motilin agonist potency (rabbit duodenum contractility); assay type: cell-based; settings: rabbit duodenum strips, contraction normalized to 1 μM carbachol; read-out: Motilin Receptor Agonist Activity (EC50)
T1 construct: strips of longitudinal smooth muscle were sliced from the segments; from tissue; host or cells: rabbit duodenum longitudinal smooth muscle strips
T1 sequence (G1T803 1-400): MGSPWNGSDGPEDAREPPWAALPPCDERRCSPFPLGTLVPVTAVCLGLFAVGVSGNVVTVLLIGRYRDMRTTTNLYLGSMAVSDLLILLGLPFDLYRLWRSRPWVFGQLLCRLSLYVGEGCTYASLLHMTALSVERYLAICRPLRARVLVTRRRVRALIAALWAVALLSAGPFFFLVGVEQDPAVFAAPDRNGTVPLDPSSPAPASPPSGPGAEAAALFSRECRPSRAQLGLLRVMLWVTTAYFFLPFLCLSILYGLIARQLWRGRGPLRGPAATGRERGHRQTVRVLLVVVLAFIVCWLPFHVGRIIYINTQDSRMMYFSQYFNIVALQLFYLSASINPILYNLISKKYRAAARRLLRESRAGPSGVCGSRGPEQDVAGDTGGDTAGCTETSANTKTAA
Method: The motilin agonist potencies of compounds of this invention were evaluated using a tissue based assay, using rabbit duodenum tissue-based contractility assay, generally following the procedure of Depoortere et al., J. Gastrointestinal Motility, 1, 150-159 (1989), the disclosure of which is incorporated herein by reference. Briefly, this method measures the ability of a compound to induce contractions in rabbit duodenal tissue, a motilin receptor-bearing tissue contractilely responsive to motilin.
Strips of rabbit duodenum were tested and qualified for use in the assay by as follows. Segments of rabbit duodenum, 20-30 cm distal to the pylorus were split longitudinally. The mucosa was removed and 2×2×15 mm strips of longitudinal smooth muscle were sliced from the segments. The strips were bathed in oxygenated Krebs solution at 37° C., with 1.5 g of tension, and contractions measured auxotonically.
The carbachol was then washed away by changing the organ bath buffer twice. The strips were washed again 20±5 minutes following the carbachol contraction. Following this last wash a dose response study was initiated within 10±5 min. Each compound tested was dissolved in dimethylsulfoxide (DMSO) to a final concentration of 10 mM. A series of seven 10× serial dilutions in water was prepared, so that the concentration of the seventh serial dilution was 1.0×10^−6 mM. The first through fifth serial dilutions of the compound were applied, starting with 200 μL of the most dilute solution. After each application, there was a wait of 2±0.5 min, until the response was stable, before the application of the next dose (the next higher concentration serial dilution). The dose was increased in 10-fold increments until a small response was observed. Subsequent doses were the increased in 2- to 5-fold increments, until the maximum response was obtained. At 2±0.5 min after the last drug addition, the strips were dosed with 1 μM carbachol.
The EC50 (concentration producing a half-maximal effect) was calculated as follows. The basal tension was subtracted from the compound-induced tension for each reading. The data points were normalized against the response obtained from 1 μM carbachol at the end of the experiment. The concentration of compound was plotted against the response and fitted to the following equation: R=(Rmax·C)/(EC50+C) where R is the contraction response, Rmax is the maximal contraction response, and C is the concentration of compound. Both R and Rmax are expressed as a fraction of the 1 μM carbachol contraction and range from 0 to 1.

| SMILES | MIC [1] | EC50 [2] |
| --- | --- | --- |
| CC[C@H]1OC(=O)[C@H](C)[C@@H](O[C@H]2C[C@@](C)(OC)[C@@H](O)[C@H](C)O2)[C@H](C)[C@@H](O[C@@H]2O[C@H](C)C[C@H](N(C)C(C)C)[C@H]2O)[C@](C)(O)C[C@@H](C)[C@H](OCC(=O)Nc2ccncn2)[C@H](C)[C@@H](O)[C@]1(C)O [Compound A-77] | > 128 µg/mL | 25 nM |
| CC[C@H]1OC(=O)[C@H](C)[C@@H](O[C@H]2C[C@@](C)(OC)[C@@H](O)[C@H](C)O2)[C@H](C)[C@@H](O[C@@H]2O[C@H](C)C[C@H](N(C)C(C)C)[C@H]2O)[C@](C)(O)C[C@@H](C)[C@H](OCc2cc(C)on2)[C@H](C)[C@@H](O)[C@]1(C)O [Compound A-27] | 128 µg/mL (≈ 149 µM) | 110 nM |
| CC[C@H]1OC(=O)[C@H](C)[C@@H](O[C@H]2C[C@@](C)(OC)[C@@H](O)[C@H](C)O2)[C@H](C)[C@@H](O[C@@H]2O[C@H](C)C[C@H](N(C)CCO)[C@H]2O)[C@](C)(O)C[C@@H](C)[C@H](NS(C)(=O)=O)[C@H](C)[C@@H](O)[C@]1(C)O [Compound A-36] | 32 µg/mL (≈ 38 µM) | 66 nM |
| CC[C@H]1OC(=O)[C@H](C)[C@@H](O[C@H]2C[C@@](C)(OC)[C@@H](O)[C@H](C)O2)[C@H](C)[C@@H](O[C@@H]2O[C@H](C)C[C@H](N(C)C(C)C)[C@H]2O)[C@](C)(O)C[C@@H](C)[C@H](OCC(=O)NCCO)[C@H](C)[C@@H](O)[C@]1(C)O [Compound A-34] | 128 µg/mL (≈ 148 µM) | 120 nM |
| CC[C@H]1OC(=O)[C@H](C)[C@@H](O[C@H]2C[C@@](C)(OC)[C@@H](O)[C@H](C)O2)[C@H](C)[C@@H](O[C@@H]2O[C@H](C)C[C@H](N(C)C(C)C)[C@H]2O)[C@](C)(O)C[C@@H](C)[C@H](OCc2ccncc2)[C@H](C)[C@@H](O)[C@]1(C)O [Compound A-28] | 128 µg/mL (≈ 150 µM) | > 420 nM |
| CC[C@H]1OC(=O)[C@H](C)[C@@H](O[C@H]2C[C@@](C)(OC)[C@@H](O)[C@H](C)O2)[C@H](C)[C@@H](O[C@@H]2O[C@H](C)C[C@H](N(C)C(C)C)[C@H]2O)[C@](C)(O)C[C@@H](C)[C@H](OCc2ncc[nH]2)[C@H](C)[C@@H](O)[C@]1(C)O [Compound A-62] | 128 µg/mL (≈ 152 µM) | 63 nM |
| CCNC(=S)NCCO[C@@H]1[C@H](C)[C@@H](O)[C@](C)(O)[C@@H](CC)OC(=O)[C@H](C)[C@@H](O[C@H]2C[C@@](C)(OC)[C@@H](O)[C@H](C)O2)[C@H](C)[C@@H](O[C@@H]2O[C@H](C)C[C@H](N(C)C(C)C)[C@H]2O)[C@](C)(O)C[C@H]1C [Compound A-67] | > 128 µg/mL | 220 nM |
| CC[C@H]1OC(=O)[C@H](C)[C@@H](O[C@H]2C[C@@](C)(OC)[C@@H](O)[C@H](C)O2)[C@H](C)[C@@H](O[C@@H]2O[C@H](C)C[C@H](N(C)C(C)C)[C@H]2O)[C@](C)(O)C[C@@H](C)[C@H](OCCNC=O)[C@H](C)[C@@H](O)[C@]1(C)O [Compound A-78] | – | 31 nM |
| CC[C@H]1OC(=O)[C@H](C)[C@@H](O[C@H]2C[C@@](C)(OC)[C@@H](O)[C@H](C)O2)[C@H](C)[C@@H](O[C@@H]2O[C@H](C)C[C@H](N(C)C(C)C)[C@H]2O)[C@](C)(O)C[C@@H](C)[C@H](OCC(N)=O)[C@H](C)[C@@H](O)[C@]1(C)O [Compound A-12] | 64 µg/mL (≈ 77.9 µM) | 52 nM |
| CC[C@H]1OC(=O)[C@H](C)[C@@H](O[C@H]2C[C@@](C)(OC)[C@@H](O)[C@H](C)O2)[C@H](C)[C@@H](O[C@@H]2O[C@H](C)C[C@H](N(C)C3CCC3)[C@H]2O)[C@](C)(O)C[C@@H](C)[C@H](OCC(=O)OC)[C@H](C)[C@@H](O)[C@]1(C)O [Compound A-23] | > 128 µg/mL | 560 nM |
| CCOC(=O)CO[C@@H]1[C@H](C)[C@@H](O)[C@](C)(O)[C@@H](CC)OC(=O)[C@H](C)[C@@H](O[C@H]2C[C@@](C)(OC)[C@@H](O)[C@H](C)O2)[C@H](C)[C@@H](O[C@@H]2O[C@H](C)C[C@H](N(C)C3CCC3)[C@H]2O)[C@](C)(O)C[C@H]1C [Compound A-10] | > 128 µg/mL | 680 nM |
| CCOC(=O)NCCO[C@@H]1[C@H](C)[C@@H](O)[C@](C)(O)[C@@H](CC)OC(=O)[C@H](C)[C@@H](O[C@H]2C[C@@](C)(OC)[C@@H](O)[C@H](C)O2)[C@H](C)[C@@H](O[C@@H]2O[C@H](C)C[C@H](N(C)C(C)C)[C@H]2O)[C@](C)(O)C[C@H]1C [Compound A-64] | 64 µg/mL (≈ 72.8 µM) | 100 nM |
| CC[C@H]1OC(=O)[C@H](C)[C@@H](O[C@H]2C[C@@](C)(OC)[C@@H](O)[C@H](C)O2)[C@H](C)[C@@H](O[C@@H]2O[C@H](C)C[C@H](N(C)C(C)C)[C@H]2O)[C@](C)(O)C[C@@H](C)[C@H](OCCOC)[C@H](C)[C@@H](O)[C@]1(C)O [Compound A-5] | 64 µg/mL (≈ 77.9 µM) | 320 nM |
| CCC(=O)O[C@@H]1[C@H](C)[C@@H](O)[C@](C)(O)[C@@H](CC)OC(=O)[C@H](C)[C@@H](O[C@H]2C[C@@](C)(OC)[C@@H](O)[C@H](C)O2)[C@H](C)[C@@H](O[C@@H]2O[C@H](C)C[C@H](N(C)C3CCC3)[C@H]2O)[C@](C)(O)C[C@H]1C [Compound A-25] | > 128 µg/mL | 1200 nM |
| CC[C@H]1OC(=O)[C@H](C)[C@@H](O[C@H]2C[C@@](C)(OC)C[C@H](C)O2)[C@H](C)[C@@H](O[C@@H]2O[C@H](C)C[C@H](N(C)C(C)C)[C@H]2O)[C@](C)(O)C[C@@H](C)[C@H](OCC(=O)NC)[C@H](C)[C@@H](O)[C@]1(C)O [Compound A-61] | 128 µg/mL (≈ 156 µM) | 17 nM |
| CC[C@H]1OC(=O)[C@H](C)[C@@H](O[C@H]2C[C@@](C)(OC)C[C@H](C)O2)[C@H](C)[C@@H](O[C@@H]2O[C@H](C)C[C@H](N(C)C(C)C)[C@H]2O)[C@](C)(O)C[C@@H](C)[C@H](OCC(=O)N(C)C)[C@H](C)[C@@H](O)[C@]1(C)O [Compound A-60] | 128 µg/mL (≈ 154 µM) | 190 nM |
| CC[C@H]1OC(=O)[C@H](C)[C@@H](O[C@H]2C[C@@](C)(OC)[C@@H](O)[C@H](C)O2)[C@H](C)[C@@H](O[C@@H]2O[C@H](C)C[C@H](N(C)C3CCC3)[C@H]2O)[C@](C)(O)C[C@@H](C)[C@H](OC)[C@H](C)[C@@H](O)[C@]1(C)O [Compound A-47] | – | 220 nM |
| CC[C@H]1OC(=O)[C@H](C)[C@@H](O[C@H]2C[C@@](C)(OC)[C@@H](O)[C@H](C)O2)[C@H](C)[C@@H](O[C@@H]2O[C@H](C)C[C@H](N(C)C(C)C)[C@H]2O)[C@](C)(O)C[C@@H](C)[C@H](OCC(=O)NOC)[C@H](C)[C@@H](O)[C@]1(C)O [Compound A-69] | – | 92 nM |
| CC[C@H]1OC(=O)[C@H](C)[C@@H](O[C@H]2C[C@@](C)(OC)[C@@H](O)[C@H](C)O2)[C@H](C)[C@@H](O[C@@H]2O[C@H](C)C[C@H](N(C)C(C)C)[C@H]2O)[C@](C)(OC)C[C@@H](C)[C@H](OCC(=O)NC)[C@H](C)[C@@H](O)[C@]1(C)O [Compound A-66] | – | 400 nM |
| CC[C@H]1OC(=O)[C@H](C)[C@@H](O[C@H]2C[C@@](C)(OC)[C@@H](O)[C@H](C)O2)[C@H](C)[C@@H](O[C@@H]2O[C@H](C)C[C@H](N(C)C(C)C)[C@H]2O)[C@](C)(O)C[C@@H](C)[C@H](OC)[C@H](C)[C@@H](O)[C@]1(C)O [Compound A-1] | – | 66 nM |
| CC[C@H]1OC(=O)[C@H](C)[C@@H](O[C@H]2C[C@@](C)(OC)[C@@H](O)[C@H](C)O2)[C@H](C)[C@@H](O[C@@H]2O[C@H](C)C[C@H](N(C)C(C)C)[C@H]2O)[C@](C)(O)C[C@@H](C)[C@H](OC(=O)NC)[C@H](C)[C@@H](O)[C@]1(C)O [Compound A-79] | – | 400 nM |
